experiment: recombinant UMI read abundance after kanamycin selection (control-corrected) (log10(CPM+1)); higher = more efficient recombination; extreme values may be limits of the assay; sequences stand for … in AGTGCAGAGAAAATCGGCCAGTTTTCTCTGCCTGCAGTCCGCATGCCGTGGGACCCCTTGGGTTCTAACCTGTTGCCTAGATTTATGCAGCGGACTGCCTTTCTCCCAAAGTGATAAACCGG…AGGTTGGTTTCACT; site = the 11-nt donor
Method in brief: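 For the IS621 bridge recombinase, a pooled Escherichia coli screen tested donor and donor-binding-loop pairs. Cells received the pair library together with a target plasmid encoding a fixed target and T7-inducible recombinase, then went onto IPTG (0.07 mM) plus kanamycin or unselected plates in duplicate. After PCR across the donor–target junction and sequencing, recombinant UMI counts were normalized to CPM, averaged, and scaled by control-derived factors. Each value is given as log10(CPM+1).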

Row | Sequence | recombinant UMI read abundance (log10)
1 | TAATGTCCATGGACCGGTTTTCCCGGTAATCCGTATTTGTA (site TAACGTCCTTA) | 0.254
2 | TAATGTCCATGGACCGGTTTTCCCGGTAATCCGTATTTGTA (site TAAGGTCCTTA) | 0.586
3 | TAATGTCCATGGACCGGTTTTCCCGGTAATCCGTATTTGTA (site TAATGTCCTTA) | 0.766
4 | TAATTAGCATGGACCGGTTTTCCCGGTAATCCGTATTTGGG (site TAATAAGCTCC) | 0.00264
5 | TAATTAGCATGGACCGGTTTTCCCGGTAATCCGTATTTGGG (site TAATCAGCTCC) | 0.0055
6 | TAATTAGCATGGACCGGTTTTCCCGGTAATCCGTATTTGGG (site TAATGAGCTCC) | 0.0311
7 | TAATTAGCATGGACCGGTTTTCCCGGTAATCCGTATTTGGG (site TAATTAGCTCC) | 0.0073
8 | TAATTCACATGGACCGGTTTTCCCGGTAATCCGTATTTGGG (site TAATTCACTCC) | 0.0061
9 | TAATTGGCATGGACCGGTTTTCCCGGTAATCCGTATTTGTG (site TAATTGGCTCA) | 0.484
10 | TAATTGGCATGGACCGGTTTTCCCGGTAATCCGTATTTGTG (site TACTTGGCTCA) | 0.0115
11 | TAATTGGCATGGACCGGTTTTCCCGGTAATCCGTATTTGTG (site TAGTTGGCTCA) | 0.0118
12 | TAATTGGCATGGACCGGTTTTCCCGGTAATCCGTATTTGTG (site TATTTGGCTCA) | 0.00466
13 | TACAAGGCATGGACCGGTTTTCCCGGTAATCCGTATTTGGT (site TACAAGGCTAC) | 0.732
14 | TACACCGCATGGACCGGTTTTCCCGGTAATCCGTATTTGTA (site TACACCGCTTA) | 1.36
15 | TACACTTCATGGACCGGTTTTCCCGGTAATCCGTATTTGGC (site TACACTTCTGC) | 0
16 | TACAGGCCATGGACCGGTTTTCCCGGTAATCCGTATTTGAC (site TACAGGCCTGT) | 0
17 | TACATCTCATGGACCGGTTTTCCCGGTAATCCGTATTTGTG (site TACATCTCTCA) | 0.976
18 | TACATGACATGGACCGGTTTTCCCGGTAATCCGTATTTGCT (site TACATGACTAG) | 2.15
19 | TACATGACATGGACCGGTTTTCCCGGTAATCCGTATTTGCT (site TACCTGACTAG) | 0.938
20 | TACATGACATGGACCGGTTTTCCCGGTAATCCGTATTTGCT (site TACGTGACTAG) | 0.566
21 | TACATGACATGGACCGGTTTTCCCGGTAATCCGTATTTGCT (site TACTTGACTAG) | 0.0568
22 | TACCCTGCATGGACCGGTTTTCCCGGTAATCCGTATTTGCA (site TACCCTGCTTG) | 0
23 | TACCGAACATGGACCGGTTTTCCCGGTAATCCGTATTTGGA (site TACCGAACTTC) | 0.277
24 | TACCTTACATGGACCGGTTTTCCCGGTAATCCGTATTTGCG (site TACCTTACTCG) | 0.0203
25 | TACGATGCATGGACCGGTTTTCCCGGTAATCCGTATTTGCT (site TACGATGCTAG) | 1.98

Row | Sequence | recombinant UMI read abundance (log10)
26 | TACGCCACATGGACCGGTTTTCCCGGTAATCCGTATTTGAG (site TACGCCACTCT) | 0.652
27 | TACGGTACATGGACCGGTTTTCCCGGTAATCCGTATTTGGT (site TACGGTACTAC) | 0.321
28 | TACGTTTCATGGACCGGTTTTCCCGGTAATCCGTATTTGCC (site TACGTTTCTGG) | 1.7
29 | TACTAATCATGGACCGGTTTTCCCGGTAATCCGTATTTGGG (site TACTAATCTCC) | 0.0128
30 | TACTCAGCATGGACCGGTTTTCCCGGTAATCCGTATTTGGA (site TACTCAGCTTC) | 0.619
31 | TACTCCGCATGGACCGGTTTTCCCGGTAATCCGTATTTGTC (site TACTCCGCTGA) | 2.18
32 | TACTGACCATGGACCGGTTTTCCCGGTAATCCGTATTTGGA (site TACTGACCTTC) | 0.0192
33 | TACTGACCATGGACCGGTTTTCCCGGTAATCCGTATTTGGG (site TACTGACCTCC) | 0.0283
34 | TAGAATACATGGACCGGTTTTCCCGGTAATCCGTATTTGCA (site AAGAATACTTG) | 0.559
35 | TAGAATACATGGACCGGTTTTCCCGGTAATCCGTATTTGCA (site CAGAATACTTG) | 0.572
36 | TAGAATACATGGACCGGTTTTCCCGGTAATCCGTATTTGCA (site GAGAATACTTG) | 0.196
37 | TAGAATACATGGACCGGTTTTCCCGGTAATCCGTATTTGCA (site TAAAATACTTG) | 0.792
38 | TAGAATACATGGACCGGTTTTCCCGGTAATCCGTATTTGCA (site TACAATACTTG) | 0.745
39 | TAGAATACATGGACCGGTTTTCCCGGTAATCCGTATTTGCA (site TAGAAAACTTG) | 0.00693
40 | TAGAATACATGGACCGGTTTTCCCGGTAATCCGTATTTGCA (site TAGAACACTTG) | 0
41 | TAGAATACATGGACCGGTTTTCCCGGTAATCCGTATTTGCA (site TAGAAGACTTG) | 0.00484
42 | TAGAATACATGGACCGGTTTTCCCGGTAATCCGTATTTGCA (site TAGAATACTAG) | 0
43 | TAGAATACATGGACCGGTTTTCCCGGTAATCCGTATTTGCA (site TAGAATACTCG) | 0
44 | TAGAATACATGGACCGGTTTTCCCGGTAATCCGTATTTGCA (site TAGAATACTGG) | 0
45 | TAGAATACATGGACCGGTTTTCCCGGTAATCCGTATTTGCA (site TAGAATACTTA) | 0
46 | TAGAATACATGGACCGGTTTTCCCGGTAATCCGTATTTGCA (site TAGAATACTTC) | 0.0185
47 | TAGAATACATGGACCGGTTTTCCCGGTAATCCGTATTTGCA (site TAGAATACTTG) | 2.18
48 | TAGAATACATGGACCGGTTTTCCCGGTAATCCGTATTTGCA (site TAGAATACTTT) | 0
49 | TAGAATACATGGACCGGTTTTCCCGGTAATCCGTATTTGCA (site TAGAATCCTTG) | 0
50 | TAGAATACATGGACCGGTTTTCCCGGTAATCCGTATTTGCA (site TAGAATGCTTG) | 0

Row | Sequence | recombinant UMI read abundance (log10)
51 | TAGAATACATGGACCGGTTTTCCCGGTAATCCGTATTTGCA (site TAGAATTCTTG) | 0
52 | TAGAATACATGGACCGGTTTTCCCGGTAATCCGTATTTGCA (site TAGACTACTTG) | 0.486
53 | TAGAATACATGGACCGGTTTTCCCGGTAATCCGTATTTGCA (site TAGAGTACTTG) | 0.446
54 | TAGAATACATGGACCGGTTTTCCCGGTAATCCGTATTTGCA (site TAGATTACTTG) | 0.00714
55 | TAGAATACATGGACCGGTTTTCCCGGTAATCCGTATTTGCA (site TAGCATACTTG) | 0.783
56 | TAGAATACATGGACCGGTTTTCCCGGTAATCCGTATTTGCA (site TAGGATACTTG) | 1.71
57 | TAGAATACATGGACCGGTTTTCCCGGTAATCCGTATTTGCA (site TAGTATACTTG) | 1.34
58 | TAGAATACATGGACCGGTTTTCCCGGTAATCCGTATTTGCA (site TATAATACTTG) | 0.633
59 | TAGAATACATGGACCGGTTTTCCCGGTAATCCGTATTTGCA (site TCGAATACTTG) | 0.00888
60 | TAGAATACATGGACCGGTTTTCCCGGTAATCCGTATTTGCA (site TGGAATACTTG) | 0
61 | TAGAATACATGGACCGGTTTTCCCGGTAATCCGTATTTGCA (site TTGAATACTTG) | 0.27
62 | TAGACTTCATGGACCGGTTTTCCCGGTAATCCGTATTTGGT (site TAGACTTCTAC) | 1.64
63 | TAGACTTCATGGACCGGTTTTCCCGGTAATCCGTATTTGGT (site TAGCCTTCTAC) | 0.0272
64 | TAGACTTCATGGACCGGTTTTCCCGGTAATCCGTATTTGGT (site TAGGCTTCTAC) | 0.329
65 | TAGACTTCATGGACCGGTTTTCCCGGTAATCCGTATTTGGT (site TAGTCTTCTAC) | 0.175
66 | TAGAGAACATGGACCGGTTTTCCCGGTAATCCGTATTTGAG (site TAGAGAACTCT) | 1.87
67 | TAGAGCCCATGGACCGGTTTTCCCGGTAATCCGTATTTGCG (site TAGAGCCCTCG) | 0.457
68 | TAGAGTCCATGGACCGGTTTTCCCGGTAATCCGTATTTGTA (site TAAAGTCCTTA) | 0.546
69 | TAGAGTCCATGGACCGGTTTTCCCGGTAATCCGTATTTGTA (site TACAGTCCTTA) | 0.159
70 | TAGAGTCCATGGACCGGTTTTCCCGGTAATCCGTATTTGTA (site TAGAGTCCTTA) | 1.37
71 | TAGAGTCCATGGACCGGTTTTCCCGGTAATCCGTATTTGTA (site TATAGTCCTTA) | 0.132
72 | TAGATGACATGGACCGGTTTTCCCGGTAATCCGTATTTGCT (site TAGATGACTAG) | 2.49
73 | TAGATTACATGGACCGGTTTTCCCGGTAATCCGTATTTGCA (site TAGAATACTTG) | 0.304
74 | TAGATTACATGGACCGGTTTTCCCGGTAATCCGTATTTGCA (site TAGACTACTTG) | 0.98
75 | TAGATTACATGGACCGGTTTTCCCGGTAATCCGTATTTGCA (site TAGAGTACTTG) | 0.616

From the supplement of paper PMC11208160
